{"source": "ChEMBL document CHEMBL5728984", "about": "“Tricyclic inhibitors of poly(ADP-ribose)polymerase” (2022)", "molecular_target": "Poly [ADP-ribose] polymerase 1 (Homo sapiens, UniProt P09874)", "sequence (P09874 whole entry)": "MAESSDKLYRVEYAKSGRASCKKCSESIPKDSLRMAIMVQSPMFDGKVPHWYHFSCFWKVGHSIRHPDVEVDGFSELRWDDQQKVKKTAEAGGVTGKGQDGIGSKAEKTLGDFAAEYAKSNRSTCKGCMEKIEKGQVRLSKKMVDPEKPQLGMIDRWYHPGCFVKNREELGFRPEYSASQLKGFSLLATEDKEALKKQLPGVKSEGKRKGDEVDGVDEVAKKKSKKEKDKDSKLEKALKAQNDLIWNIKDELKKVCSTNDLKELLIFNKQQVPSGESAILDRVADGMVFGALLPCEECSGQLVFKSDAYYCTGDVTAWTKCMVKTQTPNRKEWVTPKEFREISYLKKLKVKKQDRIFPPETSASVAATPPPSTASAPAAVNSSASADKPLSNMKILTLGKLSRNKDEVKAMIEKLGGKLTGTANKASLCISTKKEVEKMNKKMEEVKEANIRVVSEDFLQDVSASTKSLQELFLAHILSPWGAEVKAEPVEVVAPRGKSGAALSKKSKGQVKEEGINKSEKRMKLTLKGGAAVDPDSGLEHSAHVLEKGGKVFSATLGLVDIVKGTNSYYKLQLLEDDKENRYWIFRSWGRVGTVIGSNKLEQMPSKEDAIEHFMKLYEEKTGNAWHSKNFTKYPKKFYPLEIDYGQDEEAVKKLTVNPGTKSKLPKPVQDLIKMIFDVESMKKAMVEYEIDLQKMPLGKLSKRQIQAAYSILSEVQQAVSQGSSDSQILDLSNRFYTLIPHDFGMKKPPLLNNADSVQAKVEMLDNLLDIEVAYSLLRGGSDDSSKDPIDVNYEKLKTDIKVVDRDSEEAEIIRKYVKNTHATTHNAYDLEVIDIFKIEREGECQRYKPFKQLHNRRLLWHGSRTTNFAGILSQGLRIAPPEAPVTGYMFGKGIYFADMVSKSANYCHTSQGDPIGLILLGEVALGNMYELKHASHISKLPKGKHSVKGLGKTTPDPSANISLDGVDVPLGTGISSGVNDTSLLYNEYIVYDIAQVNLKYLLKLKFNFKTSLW", "assay": "Enzyme Assay: Inhibition of PARP-1 enzymatic activities was measured using an HT Universal Colorimetric PARP Assay Kit (Trevigen, catalogue #4677-096-K) following the standard procedures. Serial dilutions of PARP compounds were added to appropriate wells. The compound was incubated with PARP enzyme at RT for 10 min, and the reaction was initiated by addition of the PARP substrate cocktail, Each concentration of compound was tested in triplicate wells. After 15 min reaction, the reaction was stopped, and the Strep-HRP was added into each well and incubated for 1 h at RT. After addition of TACS-Sapphire colorimetric substrate and incubated in dark for 15 min, the OD450 was read out with an EnVision instrument. IC50 values (the concentration at which 50% of the enzyme activity is inhibited) were calculated, which are determined over a range of different concentrations, normally from 10 uM to 0.1 nM.", "data": [{"smiles": "CC(C)(C)C(=O)N1CCP(=O)(c2cc(Cc3n[nH]c(=O)c4ccccc34)ccc2F)CC1", "values": [{"measurement": "IC50", "result": "< 0.1", "unit": "µM"}]}, {"smiles": "CC(C)P1(=O)CCN(C(=O)c2cc(Cc3n[nH]c(=O)c4ccccc34)ccc2F)CC1", "values": [{"measurement": "IC50", "result": "< 0.1", "unit": "µM"}]}, {"smiles": "CCP1(=O)CCN(C(=O)c2cc(Cc3n[nH]c(=O)c4ccccc34)ccc2F)CC1", "values": [{"measurement": "IC50", "result": "< 0.1", "unit": "µM"}]}, {"smiles": "O=c1[nH]nc(Cc2ccc(F)c(P3(=O)CCN(c4ncccn4)CC3)c2)c2ccccc12", "values": [{"measurement": "IC50", "result": "< 0.1", "unit": "µM"}]}, {"smiles": "CCOP1(=O)CCN(C(=O)c2cc(Cc3n[nH]c(=O)c4ccccc34)ccc2F)CC1", "values": [{"measurement": "IC50", "result": "< 0.1", "unit": "µM"}]}, {"smiles": "CC(C)CN1CCP(=O)(c2cc(Cc3n[nH]c(=O)c4ccccc34)ccc2F)CC1", "values": [{"measurement": "IC50", "result": "< 0.1", "unit": "µM"}]}, {"smiles": "N#C/N=C(\\N1CCC1)N1CCP(=O)(c2cc(Cc3n[nH]c(=O)c4ccccc34)ccc2F)CC1", "values": [{"measurement": "IC50", "result": "< 0.1", "unit": "µM"}]}]}
